Where two headings read alike, the source gives them in different places.
Key:
[1] = for AUCinf / C max: geometric mean ± SD; for CL/F: arithmetic mean ± SD; for t max: median (range)
[2] = healthy volunteers; cited from earlier work
CYP2C9 = settings: in vitro; ref unpublished data; cited from earlier work
[3] = healthy volunteers; cited from earlier work; remark: listed apart in the source
CYP3A4 = settings: in vitro; ref unpublished data; cited from earlier work
CYP2C19 [4] = settings: in vitro; ref unpublished data; cited from earlier work
Safety assessments = type: in vivo, human
CYP2B6 = settings: cited from earlier work
[5] = type: in vivo, human; settings: for CL/F: arithmetic mean ± SD
CYP2C19 [6] = settings: cited from earlier work
[7] = type: in vivo, human; settings: for CL/F: arithmetic mean ± SD; remark: listed apart in the source
[8] = type: in vivo, human; settings: for CL/F: arithmetic mean ± SD; remark: listed apart in the source
prothrombin time (PT) = experiment: Study 15L-CL-018: warfarin pharmacodynamics; type: in vivo, human; settings: for AUCPT;0–168 h: geometric mean ± SD
[9] = warfarin 25 mg + amenamevir 200 mg once daily, n = 18
[10] = warfarin 25 mg + amenamevir 400 mg once daily, n = 15
[11] = warfarin 25 mg alone, amenamevir 400 mg group, n = 17
[12] = warfarin + amenamevir 200 mg once daily
[13] = warfarin + amenamevir 400 mg once daily
[14] = warfarin alone, amenamevir 200 mg group
[15] = warfarin alone, amenamevir 400 mg group
[16] = with ketoconazole coadministration vs amenamevir alone
[17] = in the presence of rifampicin vs amenamevir alone

Structure (SMILES): CC(=O)C[C@H](c1ccccc1)c1c(O)c2ccccc2oc1=O [(R)-Warfarin, (R)-warfarin]
- AUCinf [1, 9]: 67,092 ± 18,315 ng h/mL
- AUCinf [1, 10]: 68,723 ± 12,736 ng h/mL
- AUCinf [1, 11]: 75,652 ± 18,160 ng h/mL
- CL/F [1, 12]: 0.18 ± 0.04 L/h
- C max [1, 12]: 1240 ± 134 ng/mL
- t max [1, 12]: 4.0 (1.0–12.0) h
- CL/F [1, 13]: 0.17 ± 0.03 L/h
- C max [1, 13]: 1262 ± 232 ng/mL
- t max [1, 13]: 4.0 (2.0–12.0) h
- CL/F [1, 14]: 0.17 ± 0.04 L/h
- C max [1, 14]: 1197 ± 133 ng/mL
- t max [1, 14]: 4.0 (2.0–4.0) h
- CL/F [1, 15]: 0.16 ± 0.04 L/h
- C max [1, 15]: 1187 ± 149 ng/mL
- t max [1, 15]: 4.0 (2.0–12.0) h

Structure (SMILES): CC(=O)C[C@@H](c1ccccc1)c1c(O)c2ccccc2oc1=O [(S)-Warfarin, (S)-warfarin]
- AUCinf [1, 9]: 46,725 ± 18,437 ng h/mL
- AUCinf [1, 10]: 45,032 ± 23,503 ng h/mL
- AUCinf [1, 11]: 50,329 ± 24,609 ng h/mL
- CL/F [1, 12]: 0.26 ± 0.07 L/h
- C max [1, 12]: 1217 ± 134 ng/mL
- t max [1, 12]: 4.0 (1.0–4.0) h
- CL/F [1, 13]: 0.27 ± 0.08 L/h
- C max [1, 13]: 1251 ± 237 ng/mL
- t max [1, 13]: 2.0 (1.0–4.0) h
- CL/F [1, 14]: 0.25 ± 0.07 L/h
- C max [1, 14]: 1194 ± 132 ng/mL
- t max [1, 14]: 4.0 (2.0–4.0) h
- CL/F [1, 15]: 0.25 ± 0.08 L/h
- C max [1, 15]: 1168 ± 162 ng/mL
- t max [1, 15]: 4.0 (1.0–4.0) h

Structure (SMILES): Cc1cccc(C)c1N(CC(=O)Nc1ccc(-c2ncon2)cc1)C(=O)C1CCS(=O)(=O)CC1 [Amenamevir, amenamevir]
- urinary excretion as unchanged drug [2]: approximately 10%
- induction of enzyme activity (CYP2C9): potentially induces
- change of AUCinf when administered with food [3]: almost doubling
- induction of enzyme activity (CYP3A4): potentially induces
- induction of enzyme activity (CYP2C19 [4]): weak potential for inducing
- deaths, serious adverse events (Safety assessments; across all four studies): no deaths or serious adverse events reported
- safety and tolerability (Safety assessments; across all four studies, healthy male adults): safe and generally well tolerated
- participants reporting TEAEs (Safety assessments; study 15L-CL-010, group that received the 200-mg dose of amenamevir (with single doses of midazolam 7.5 mg)): 9.1%
- participants reporting TEAEs (Safety assessments; study 15L-CL-010, group that received the 400-mg dose of amenamevir (with single doses of midazolam 7.5 mg)): 9.1%
- TEAEs considered to be related to the study drug (Safety assessments; study 15L-CL-018, 200-mg amenamevir dose): myalgia
- TEAEs considered to be related to the study drug (Safety assessments; study 15L-CL-018, 400-mg amenamevir dose): back pain, abdominal pain, and dyspepsia
- correlation of metabolism with marker-enzyme activity (CYP2B6): significantly correlated
- CL/F ([5]; amenamevir 400 mg + ketoconazole 400 mg once daily): 8.0 ± 2.1 L/h
- CL/F ([5]; amenamevir 400 mg alone): 20.8 ± 5.9 L/h
- pharmacokinetic interaction with ketoconazole (90% CI of LS GMR vs 0.80–1.25) ([5]; based on AUCinf): significant interaction
- Cmax ([5]; human, plasma, oral, 400 mg): 1450 ± 329 ng/mL
- half-life ([5]; human, plasma, oral, 400 mg): 8.1 ± 1.9 h
- t max ([5]; human, plasma, oral, 400 mg): 4 h
- decrease of CL/F [5, 16]: 2.6 fold
- increase of mean t ½ [5, 16]: 2.2 fold
- correlation of metabolism with marker-enzyme activity (CYP2C19 [6]): significantly correlated
- CL/F ([7]; amenamevir 400 mg + rifampicin 600 mg once daily): 133.5 ± 40.0 L/h
- CL/F ([7]; amenamevir 400 mg alone): 22.1 ± 5.9 L/h
- pharmacokinetic interaction with rifampicin (90% CI of LS GMR vs 0.80–1.25) ([7]; based on C max and AUCinf): significant interaction
- Cmax ([7]; human, plasma, oral, 400 mg): 1320 ± 282 ng/mL
- half-life ([7]; human, plasma, oral, 400 mg): 8 ± 1.2 h
- t max ([7]; human, plasma, oral, 400 mg): 3 h
- decrease of mean t ½ [7, 17]: 2.7 fold
- increase of mean CL/F [7, 17]: sixfold

Structure (SMILES): Cc1ncc2n1-c1ccc(Cl)cc1C(c1ccccc1F)=NC2 [Midazolam, midazolam]
- pharmacokinetic interaction with amenamevir (90% CI of LS GMR vs 0.80–1.25) ([8]; amenamevir 400 mg once daily, based on C max and AUCinf): significant interaction
- pharmacokinetic interaction with amenamevir (90% CI of LS GMR vs 0.80–1.25) ([8]; amenamevir 200-mg dose, based on AUCinf): significant interaction
- t max ([8]; human, plasma, oral, 200 mg): 1.5 h
- t max ([8]; human, plasma, oral, 400 mg): 1.5 h
- CL/F ([8]; midazolam + amenamevir 200 mg once daily): 109.0 ± 43.4 L/h
- CL/F ([8]; midazolam + amenamevir 400 mg once daily): 143.8 ± 68.0 L/h
- t max ([8]; midazolam + amenamevir 400 mg once daily, median (range)): 1.0 (0.5–4.0) h
- CL/F ([8]; midazolam alone, amenamevir 200 mg group): 80.1 ± 37.0 L/h
- CL/F ([8]; midazolam alone, amenamevir 400 mg group): 78.2 ± 39.2 L/h

Structure (SMILES): CC(=O)CC(c1ccccc1)c1c(O)c2ccccc2oc1=O (centres unmarked) [Warfarin, warfarin]
- TEAEs considered to be related to the study drug (Safety assessments; study 15L-CL-018, warfarin 25 mg alone): nausea and dyspepsia
- AUCPT;0–168 h (prothrombin time (PT); warfarin + amenamevir 200 mg once daily, n = 18): 2411 ± 199 s h
- AUCPT;0–168 h (prothrombin time (PT); warfarin + amenamevir 400 mg once daily, n = 15): 2425 ± 163 s h
- AUCPT;0–168 h (prothrombin time (PT); warfarin alone, amenamevir 400 mg group, n = 17): 2556 ± 254 s h
- tPTmax (prothrombin time (PT); warfarin alone, amenamevir 400 mg group, arithmetic mean ± SD): 39.5 ± 14.6 h

Structure (SMILES): CC(=O)N1CCN(c2ccc(OCC3COC(Cn4ccnc4)(c4ccc(Cl)cc4Cl)O3)cc2)CC1 (centres unmarked) [ketoconazole]
- participants reporting headache (TEAE) (Safety assessments; study 15L-CL-008, during the treatment named, n = 22): 18.2%

Reference: article PMC5702381 (Advances in Therapy, 2017)
